Source: US6177592A, “Compounds” (priority 1997, dated 2001)

How the values were obtained:
Assay type in all cases: cell-based
[1] = system: NIH 3T3/E7-2; experiment: Colony formation of HPV16 E7-transformed NIH 3T3/E7-2 cells
Description: (§1) (1) Transformation to Escherichia coli HB101 was conducted by control plasmid pcD2-Y expressing G418-resisting gene [Mol. Cell. Biol., volume 7, pages 2745-2752 (1987)] and plasmid pcD2-16E7 which was capable of expressing both HPV 16 type E7 and G418-resisting gene [Jpn. J. Cancer Res., volume 82, pages 1340-1343 (1991)], then incubation was conducted in an L-broth medium and plasmid was extracted from the collected cells and purified by a cesium chloride density gradient ultracentrifugation to give vector plasmid for introduction of gene.
(§2) The purified plasmid (10 μg) was introduced into NIH 3T3 cells using a cationic liposome (TransIT LT-1, manufactured by Takara Shuzo), the cells were selected at 37° C. under the condition of 5% CO2 for two weeks in a Dulbecco-modified Eagle's medium containing 10% calf serum which contained 0.4 mg/ml of G418 (Gibco) and the resulting colonies were cloned to establish each nine strains of NIH 3T3 cells into which control vector was introdcd and NIH 3T3 cells which was cancerated with HPV 16 type E7.
The cells strains into which E7 was introduced were named NIH 3T3/E7-1, NIH 3T3/E7-2, NIH 3T3/E7-3, NIH 3T3/E7-4, NIH 3T3/E7-5, NIH 3T3/E7-6, NIH 3T3/E7-7, NIH 3T3/E7-8 and NIH 3T3/E7-9. […]
(§3) A part of the suspension was taken out and cell density was counted by a Neubauer's hemocytometer. […]

[2] = system: CEM-SS cells; experiment: Survival rate of CEM-SS cells; conditions: one day
Description: GM (0, 4, 8 or 16 μM) was added to 2×10^5 cell/ml of CEM-SS cells (ATCC CCL-119) and to CEM-SS cells infected with HIV-1IIIB (wherein not less than 90% of the CEM-SS cells were infected with the HIV-1IIIB; hereinafter, referred to as CEM-3B) incubation was conducted for one day, viable cell numbers and dead cell numbers were counted and survival cell rate was calculated.

[3] = system: NIH 3T3/Y-1; experiment: Colony formation of control-vector NIH 3T3/Y-1 cells; conditions: 5 μM GM, nine days; control 83.3 ± 8.4
Description: as §1, §2
The cell strains into which control vector was introduced were named NIH 3T3/Y-1, NIH 3T3/Y-2, NIH 3T3/Y-3, NIH 3T3/Y-4, NIH 3T3/Y-5, NIH 3T3/Y-6, NIH 3T3/Y-7, NIH 3T3/Y-8 and […]). […]
as §3

N[C@@H](CCC(=O)N[C@@H](CSC1C=C(O)C(=O)C1)C(=O)NCC(=O)O)C(=O)O (some centres unmarked) [GM, 2-hydroxy-4-glutathion-S-yl-2-cyclopenten-1-one]
sensitivity of E7-introduced cells compared with control cells (in words) ([1]; 5 μM): high sensitivity to GM as compared with the control cells | Numbers of Colonies (Mean Value ± SD) ([1]; 5 μM GM, nine days, control 67.3 ± 3.2): 13.3 ± 3.2 | survival rate of cells ([2]; 16 μM): the survival rate of CEM-SS cells decreased as well | survival rate of cells ([2]; 4 or 8 μM): survival rate did not decrease in CEM-SS cells | Numbers of Colonies (Mean Value ± SD) [3]: 72.0 ± 9.5
